Experimental data: paper PMC6394990, “Detailed characterization of the solution kinetics and thermodynamics of biotin, biocytin and HABA binding to avidin and streptavidin” (PLoS ONE, 2019)
Several values for one entry are separate records, joined by “and”; a condition that tells them apart may be missing. Equal entries are not always repeated.

How the values were obtained:
streptavidin (SAV) [1] = target: T1, streptavidin (SAV) (Streptomyces avidinii, UniProt P22629); experiment: Intrinsic lifetime, dynamic quantum yield and fraction of non-statically quenched molecules, SAV complex; assay type: physicochemical; details: for 1-S (4) = QY/F, fraction of non-statically quenched molecules / F (3) = Sat/t° / S / t° (2), intrinsic lifetime of the fluorescence dye: complex with SAV
T1 construct: purchased Sigma Aldrich (St. Louis, MO)

streptavidin (SAV) [2] = target: T1, streptavidin (SAV); experiment: Dissociation (displacement/replacement) of dye-labeled biotin complexes by unlabeled B7; assay type: binding; details: for half-time of displacement: SAV-BcO AB1
Protocol: Biotin dissociation was determined using labelled biotin (BcO and BFl) displaced by unlabeled biotin using minimally occupied and fully occupied binding sites. In the minimally occupied measurements, SAV is prepared with less than one site on average occupied by labelled biotin (AB1), using 800 nM SAV and 40 nM of BcO or BFl. For saturated SAV-labelled biotin (AB4) complexes, equimolar binding sites and labelled ligand were prepared, 40 nM SAV and 40 nM of BcO or BFl. The AB1 complexes were challenged in displacement experiments with several concentrations of unlabeled B7 (1500 nM, 1750 nM, 2000 nM and 2500 nM) at 20 ± 0.1°C. In AB1, SAV had 760 nM in open sites, therefore the total challenging B7 concentrations were 740 nM, 990 nM, 1240 nM and 1740 nM, respectively. […] The 40 nM AB4 complexes were challenged with unlabeled B7 concentrations of 400 nM (10X) and 1600 nM (40X) at 20 ± 0.1°C. The dissociation reactions of AV complexes were carried out with a preformed complex of 20 nM BFl or BcO and 260 nM AV for a filling model of AB1 and challenged with unlabeled B7 at 2,000 nM.
The rss measurements were collected using the Giblin-Parkhurst modification of the Wampler-Desa method as described previously. The fluorescence signal was detected in a model A-1010 Alphascan fluorimeter (Photon Technologies, Inc., Birmingham, NJ) equipped with an R928 PMT (Hamamatsu, Bridgewater, NJ). The excitation was provided by an Ar^+ ion laser (Coherent Innova 70–4 Argon, Santa Clara, CA) at 488 nm and 5–10 mW of power incident on the sample. A photoelastic modulator (PEM-80; HINDS International, Inc., Portland, OR) was placed between the laser source and the sample compartment with a retardation level of 1.22π, and the PEM stress axis orientated 45° with respect to the E vector of the laser beam. Two signals were acquired with the PEM alternating between “on” and “off” positions for 10 seconds and the data fitted to a least squared straight line to minimize noise. A minimum of six of these independent measurements were averaged to acquire the rss values. The fluorimeter G factor was determined using a film polarizer and analyzer with an excitation at 488 nm provided by a xenon arc lamp (model A1010, Photon Technologies Inc, Princeton, NJ). The dissociation reactions of dye-labeled B7 and protein complexes were monitored by fluorescence changes and were also collected in the fluorimeter described above.
The dissociation reactions were followed by fluorescence changes, F¯(t) , in the fluorimeter and laser setup described above and tuned to 488 nm under discontinuous excitation to prevent photobleaching distortion. The signal was best fitted to the following dissociation model (Eq 10), in which the dye labeled complex dissociates into the labeled B7 probe (BFl or BcO) and the respective protein (AV or SAV).

avidin (AV) = target: T2, avidin (AV) (Gallus gallus, UniProt P02701); experiment: Quantum yields (QY), AV complex; assay type: physicochemical; details: for Quantum Yield QY: AV complex (AB1); for dQY-AV: fractional change of QY, AV complex against dye
T2 construct: purchased Calbiochem (La Jolla, CA)
Protocol: (§1) The lifetimes (τ), steady state anisotropies (rss), time-resolved anisotropies (rt) and quantum yields (QY) of the complexes (at 20 ± 0.1°C and pH 8) were collected with a dye-labeled B7 probe concentration of 20–40 nM and 1040–2080 nM of either protein (AV or SAV) to ensure that only one binding site in the tetramer was filled with a ligand (AB1 filling model).
(§2) The QY values were obtained by using a reference fluorophore of known quantum yield and were calculated according to Parker and Rees, where the reference dye was fluorescein in 0.1N sodium hydroxide solution [46]. The emission fluorescence scans were collected from 480 nm to 700 nm with the excitation light set at 460 nm provided by the xenon arc lamp described above. These measurements were made on the AB1 complexes at high protein concentration.

[3] = Steady-state anisotropy (rss), unbound probe; assay type: physicochemical
Protocol: as §1
The rss measurements were collected using the Giblin-Parkhurst modification of the Wampler-Desa method as described previously. The fluorescence signal was detected in a model A-1010 Alphascan fluorimeter (Photon Technologies, Inc., Birmingham, NJ) equipped with an R928 PMT (Hamamatsu, Bridgewater, NJ). The excitation was provided by an Ar^+ ion laser (Coherent Innova 70–4 Argon, Santa Clara, CA) at 488 nm and 5–10 mW of power incident on the sample. […] The fluorimeter G factor was determined using a film polarizer and analyzer with an excitation at 488 nm provided by a xenon arc lamp (model A1010, Photon Technologies Inc, Princeton, NJ). The dissociation reactions of dye-labeled B7 and protein complexes were monitored by fluorescence changes and were also collected in the fluorimeter described above.

streptavidin (SAV) [4] = target: T1, streptavidin (SAV); experiment: Quantum yields (QY), SAV complex; assay type: physicochemical; details: for dQY-SAV: fractional change of QY, SAV complex against dye
Protocol: as §1, §2

de-glycosylated AV = target: T3, de-glycosylated AV (Gallus gallus, UniProt P02701); experiment: Stopped-flow association kinetics with endoglycosidase H de-glycosylated avidin; assay type: binding
T3 construct: purchased Calbiochem (La Jolla, CA)
Protocol: These reactions were carried out in a buffered solution of 10 mM Tris-HCl, 100 mM KCl, 2.5 mM MgCl2 and 1 mM CaCl2 at pH 8 and only AV-BcO reactions included pH 9 and 10. The concentrations, after mixing, were of 20 nM of dye-labeled B7 probe and 260 nM, 520 nM or 1040 nM of AV; and 200 nM, 300 nM, 400 nM or 800 nM of SAV at temperatures of 10, 15, 20 and 25°C. The deglycosylation of AV (for comparative association reactions) was carried out using the provided standard protocol with endoglycosidase H [47], both with and without incubation of a denaturant solution (2% SDS and 1M 2-mercaptoethanol).
The reactions were collected with the SF instrument, described previously. The fluorescence signal was collected through a 520 nm interference filter (Oriel Corp., Stratford, CT) with a detector time constant and SF dead time of 1 μs and 1 ms, respectively. The excitation light was provided by the Coherent Ar^+ ion laser (described above) at 488 nm with […] of incident power on the reaction cuvette. The laser source was followed by the photo-elastic modulator described above with the axis oriented 45^o with respect to the electric vector of the incident light and with the half-wave modulation (50 kHz) set for 488 nm excitation. The demodulation circuitry following the photomultiplier provided a DC(t) and a rectified AC(t) which were converted to digital data by a high-speed digitizer (PCI-5122) from National Instruments (Austin, TX) with 14-bit resolution and 100 MHz bandwidth, through channels 0 and 1. The data acquisition was controlled by LabVIEW (Vr 8) software at a collection rate of 6120 data points/second and stored in spreadsheets. The AC(t) and DC(t) data were baseline corrected before obtaining the signal ratio (Eq 4) as a function of time (ρt).

[5] = SAV complex, mono-ionic fluorescein species

T3 sequence (P02701 25-152): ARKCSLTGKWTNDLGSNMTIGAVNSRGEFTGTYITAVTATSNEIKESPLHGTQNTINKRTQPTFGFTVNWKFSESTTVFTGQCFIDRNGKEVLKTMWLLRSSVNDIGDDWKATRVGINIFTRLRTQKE
T2 sequence (P02701 25-152): as above
T1 sequence (P22629 25-183): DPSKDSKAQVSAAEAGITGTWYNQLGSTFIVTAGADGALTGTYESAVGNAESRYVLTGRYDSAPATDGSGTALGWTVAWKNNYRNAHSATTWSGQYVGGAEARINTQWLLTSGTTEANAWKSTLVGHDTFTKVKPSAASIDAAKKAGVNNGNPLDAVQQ

Compound	1-S (4) = QY/F, fraction of non-statically quenched molecules (streptavidin (SAV) [1])	F (3) = Sat/t° (streptavidin (SAV) [1])	S (streptavidin (SAV) [1])	t° (2), intrinsic lifetime of the fluorescence dye (streptavidin (SAV) [1])	Quantum Yield QY (avidin (AV))	QY (avidin (AV); complex with AV)	dQY-AV (avidin (AV))	rss, Unbound [3]	QY (streptavidin (SAV) [4]; complex with SAV)	dQY-SAV (streptavidin (SAV) [4])	other results
O=C(CCCC[C@@H]1SC[C@@H]2NC(=O)N[C@@H]21)NCCNC(=O)c1ccc(-c2c3ccc(=O)cc-3oc3cc(O)ccc23)c(C(=O)O)c1 [BFl, Biotin-4-fluorescein]	0.14 and 0.14 ± 0.02	0.80 ± 0.02	0.86	4.6 ± 0.1	0.44 ± 0.01	0.44 and 0.44 ± 0.01	-0.1538	0.021	0.11 and 0.11 ± 0.01	-0.7885	Natural Lifetime τ° (streptavidin (SAV) [1]; SAV complex, di-ionic fluorescein species): 4.5 ± 0.1; Fraction of Non-Statically Quenched Dye 1-S (streptavidin (SAV) [1]; [5]): 0.18 ± 0.02; Natural Lifetime τ° (streptavidin (SAV) [1]; [5]): 8.1 ± 0.1; release (displacement) of the bound probe (streptavidin (SAV) [2]; SAV-BFl complex, AB1, 30°C, challenging B7 1400 nM): 5%; 488, correction, absR/abs (avidin (AV); complex with AV): 1.171; QY multiplied by the 488 correction absR/abs (avidin (AV); complex with AV): 0.5154; 488, correction, absR/abs (streptavidin (SAV) [4]; complex with SAV): 1.708; QY multiplied by the 488 correction absR/abs (streptavidin (SAV) [4]; complex with SAV): 0.1879; ln(k) (de-glycosylated AV; deAV 15C (288.15 K), pH8): 15.5; k(average) (de-glycosylated AV; deAV 15C (288.15 K), pH8, full value): 5.36E+06; k(average) (de-glycosylated AV; deAV 15C (288.15 K), pH8, scaled): 5.4
NC(CCCCNC(=O)CCCC[C@@H]1SC[C@@H]2NC(=O)N[C@@H]21)C(=O)NCCCCCNC(=O)c1ccc(-c2c3cc(F)c(=O)cc-3oc3cc(O)c(F)cc23)c(C(=O)O)c1 (stereo partly shown) [BcO, Oregon green 488 Biocytin]	0.25 and 0.25 ± 0.02	0.83 ± 0.02	0.75	4.8 ± 0.1	0.62 ± 0.02	0.62 and 0.62 ± 0.02	-0.3187	0.023	0.21 ± 0.01 and 0.21	-0.7692	Dynamic Quantum Yield Φ (streptavidin (SAV) [1]; SAV complex (AB1)): 0.83 ± 0.02; Fraction of Non-Statically Quenched Dye 1-S (streptavidin (SAV) [1]; SAV complex (AB1)): 0.25 ± 0.02; Natural Lifetime τ° (streptavidin (SAV) [1]; SAV complex (AB1)): 4.8 ± 0.1; half-time of displacement (streptavidin (SAV) [2]; 20°C, challenging B7 740 nM): 56.6 s; half-time of displacement (streptavidin (SAV) [2]; 20°C, challenging B7 1240 nM): 33.9 s; half-time of displacement (streptavidin (SAV) [2]; 20°C, challenging B7 1740 nM): 24.2 s; release amplitude of the displacement reaction (streptavidin (SAV) [2]; SAV-BcO complex challenged with unlabeled B7, 20°C): ~ 79% and 79 ± 1%; Quantum Yield QY (streptavidin (SAV) [4]; SAV complex (AB1)): 0.21 ± 0.01; kon (de-glycosylated AV; de-glycosylated AV, 15°C): 3.7e+06 M⁻¹ s⁻¹
